Drawing on patent US9023849B2, “Substituted fused imidazoles and pyrazoles and use thereof” (Bayer Intellectual Property GmbH, priority 2012, dated 2015), this text covers IC50 and minimal effective concentration for ten compounds.

The subject of assay [1] is rabbit aorta rings. In words: Vasorelaxant effect in vitro (rabbit aorta rings precontracted with phenylephrine). Particulars: Oryctolagus cuniculus, phenylephrine contraction, read-out: IC50 (concentration needed to reduce the magnitude of the phenylephrine contraction by 50%). The method, then:
B-1. Vasorelaxant Effect In Vitro
Rabbits are stunned by a blow to the neck and exsanguinated. The aorta is removed, freed from adhering tissue and divided into rings of width 1.5 mm, which are placed individually under prestress into 5 ml organ baths with carbogen-sparged Krebs-Henseleit solution at 37° C. having the following composition (each mM): sodium chloride: 119; potassium chloride: 4.8; calcium chloride dihydrate: 1; magnesium sulphate heptahydrate: 1.4; potassium dihydrogenphosphate: 1.2; sodium hydrogencarbonate: 25; glucose: 10. The contractile force is determined with Statham UC2 cells, amplified and digitalized using A/D transducers (DAS-1802 HC, Keithley Instruments Munich), and recorded in parallel on linear recorders.
To obtain a contraction, phenylephrine is added to the bath cumulatively in increasing concentration. After several control cycles, the substance to be studied is added in increasing dosage each time in every further run, and the magnitude of the contraction is compared with the magnitude of the contraction attained in the last preceding run. This is used to calculate the concentration needed to reduce the magnitude of the control value by 50% (IC50 value). The standard administration volume is 5 μl; the DMSO content in the bath solution corresponds to 0.1%.

Assay [2] deals with human PDE 5 (Homo sapiens (Human), UniProt O76074). The assay can be described thus: Inhibition of human phosphodiesterase 5 (PDE 5), SPA assay. Format: biochemical. Particulars: PDE 5 preparation from human platelets, [8-3H]cGMP substrate. On the procedure:
B-6. Inhibition of Human Phosphodiesterase 5 (PDE 5)
PDE 5 preparations are obtained from human platelets by disruption (Microfluidizer®, 800 bar, 3 passes), followed by centrifugation (75 000 g, 60 min, 4° C.) and ion exchange chromatography of the supernatant on a Mono Q 10/10 column (linear sodium chloride gradient, elution with a 0.2-0.3M solution of sodium chloride in buffer (20 mM Hepes pH 7.2, 2 mM magnesium chloride). Fractions having PDE 5 activity are combined (PDE 5 preparation) and stored at −80° C.
To determine their in vitro action on human PDE 5, the test substances are dissolved in 100% DMSO and serially diluted. Typically, dilution series (1:3) from 200 μM to 0.091 μM are prepared (resulting final concentrations in the test: 4 μM to 0.0018 μM). In each case 2 μl of the diluted substance solutions are placed into the wells of microtitre plates (Isoplate-96/200 W; Perkin Elmer). Subsequently, 50 μl of a dilution of the above-described PDE 5 preparation are added. The dilution of the PDE 5 preparation is selected such that, during the later incubation, less than 70% of the substrate is converted (typical dilution: 1:100; dilution buffer: 50 mM tris/hydrochloric acid pH 7.5, 8.3 mM magnesium chloride, 1.7 mM EDTA, 0.2% BSA). The substrate, [8-^3H]cyclic guanosine-3′,5′-monophosphate (1 μCi/μl; Perkin Elmer) is diluted 1:2000 with assay buffer (50 mM tris/hydrochloric acid pH 7.5, 8.3 mM magnesium chloride, 1.7 mM EDTA) to a concentration of 0.0005 μCi/μl. By addition of 50 μl (0.025 μCi) of the diluted substrate, the enzyme reaction is finally started. The test mixtures are incubated at room temperature for 60 min and the reaction is stopped by adding 25 μl of a suspension of 18 mg/ml yttrium scintillation proximity beads in water (phosphodiesterase beads for SPA assays, RPNQ 0150, Perkin Elmer). The microtitre plates are sealed with a film and left to stand at room temperature for 60 min Subsequently, the plates are analysed for 30 s per well in a Microbeta scintillation counter (Perkin Elmer). IC50 values are determined using the graphic plot of the substance concentration against percentage PDE 5 inhibition.

Assay [3] relates to recombinant guanylate cyclase reporter cell line. The assay can be described thus: Effect on a recombinant guanylate cyclase reporter cell line. Type of assay: cell-based. The following applies: read-out: MEC (minimal effective concentration). The method, then: B-2. Effect on a Recombinant Guanylate Cyclase Reporter Cell Line
The cellular action of the inventive compounds is determined on a recombinant guanylate cyclase reporter cell line as described in F. Wunder et al., Anal. Biochem. 339, 104-112 (2005).

Each structure is given as a SMILES string.

For the compound `Cc1ncc2c(-c3ncc4c(n3)NC(=O)C4(C)C)nn(Cc3cccc(F)c3F)c2n1` [Example 17, 2-[1-(2,3-Difluorobenzyl)-6-methyl-1H-pyrazolo[3,4-d]pyrimidin-3-yl]-5,5-dimethyl-5,7-dihydro-6H-pyrrolo[2,3-d]pyrimidin-6-one], the IC50 stood at 292 nM in assay [1] and 230 nM in assay [2]. For the same compound, the minimal effective concentration in assay [3] amounted to 0.3 µM.

On to `Cc1ncc2c(-c3ncc4c(n3)NC(=O)C4(C)C)nn(Cc3ccccc3F)c2n1` [Example 15, 2-[1-(2-Fluorobenzyl)-6-methyl-1H-pyrazolo[3,4-d]pyrimidin-3-yl]-5,5-dimethyl-5,7-dihydro-6H-pyrrolo[2,3-d]pyrimidin-6-one], for which the IC50 was determined as 78 nM in assay [1] and 310 nM in assay [2]. Further, the minimal effective concentration in assay [3] was 0.1 µM.

For `CC1(C)C(=O)Nc2nc(-n3nc(CCC(F)(F)C(F)(F)F)c4cc(F)ccc43)nnc21` [Example 22, 3-[5-Fluoro-3-(3,3,4,4,4-pentafluorobutyl)-1H-indazol-1-yl]-7,7-dimethyl-5,7-dihydro-6H-pyrrolo[2,3-e][1,2,4]triazin-6-one], the results for the IC50 in assay [1] and in assay [2] were 7730 nM and 530 nM, respectively. Also, in assay [3], the minimal effective concentration amounted to 1 µM.

On to `Cc1ncc2c(-c3nnc4c(n3)NC(=O)C4(C)C)nn(Cc3cccc(F)c3F)c2n1` [Example 18, 3-[1-(2,3-Difluorobenzyl)-6-methyl-1H-pyrazolo[3,4-d]pyrimidin-3-yl]-7,7-dimethyl-5,7-dihydro-6H-pyrrolo[2,3-e][1,2,4]triazin-6-one], for which the figures for the IC50 in assay [1] and in assay [2] were 1140 nM and 16 nM, respectively. For the same compound, the minimal effective concentration in assay [3] came out at 0.3 µM.

With `CC1(C)C(=O)Nc2nc(-n3nc(Cc4ccccc4F)c4cc(F)ccc43)nc(I)c21` [Example 6, 2-[5-Fluoro-3-(2-fluorobenzyl)-1H-indazol-1-yl]-4-iodo-5,5-dimethyl-5,7-dihydro-6H-pyrrolo[2,3-d]pyrimidin-6-one], the IC50 in assay [2] was found to be 690 nM. The minimal effective concentration in assay [3] is 0.766 µM.

As for `CC1(C)C(=O)Nc2nc(-c3nn(Cc4ccccc4F)c4cc(Cl)ccc34)nnc21` [Example 24, 3-[6-Chloro-1-(2-fluorobenzyl)-1H-indazol-3-yl]-7,7-dimethyl-5,7-dihydro-6H-pyrrolo[2,3-e][1,2,4]triazin-6-one], in assay [2], the IC50 came to 25 nM. The minimal effective concentration in assay [3] came to 0.1 µM.

For `CC1(C)C(=O)Nc2nc(-c3nn(Cc4ncccc4F)c4cc(Cl)ccc34)nnc21` [Example 25, 3-[6-Chloro-1-[(3-fluoropyridin-2-yl)methyl]-1H-indazol-3-yl]-7,7-dimethyl-5,7-dihydro-6H-pyrrolo[2,3-e][1,2,4]triazin-6-one], the IC50 in assay [2] is 160 nM. Besides, the minimal effective concentration in assay [3] is 0.3 µM.

In turn, `CC1(C)C(=O)Nc2nc(-c3nn(Cc4ccccc4F)c4c3CCC4)nc(I)c21` [Example 10, 2-[1-(2-Fluorobenzyl)-1,4,5,6-tetrahydrocyclopenta[c]pyrazol-3-yl]-4-iodo-5,5-dimethyl-5,7-dihydro-6H-pyrrolo[2,3-d]pyrimidin-6-one] showed an IC50 in assay [2] of 480 nM. Also, in assay [3], the minimal effective concentration amounted to 1 µM.

Consider `CC1(C)C(=O)Nc2nc(-n3nc(Cc4ccccc4F)c4ccccc43)nc(I)c21` [Example 3, 2-[3-(2-Fluorobenzyl)-1H-indazol-1-yl]-4-iodo-5,5-dimethyl-5,7-dihydro-6H-pyrrolo[2,3-d]pyrimidin-6-one], for which the IC50 in assay [2] stood at 690 nM. Also, the minimal effective concentration in assay [3] is 0.3 µM.

With `CC1(C)C(=O)Nc2nc(-c3nn(Cc4ccccc4F)c4c3CCC4)nnc21` [Example 12, 3-[1-(2-Fluorobenzyl)-1,4,5,6-tetrahydrocyclopenta[c]pyrazol-3-yl]-7,7-dimethyl-5,7-dihydro-6H-pyrrolo[2,3-e][1,2,4]triazin-6-one], in assay [2], the IC50 was found to be 3500 nM. In assay [3], the minimal effective concentration is 1 µM.
